# Laboratory results reported in US20230374034A1, “NOVEL BICYCLIC COMPOUNDS” (PRISM BIOLAB CO., LTD., priority 2020, published 2023).
# Test system: NICD (Notch intracellular domain) CSL-bla reporter in HeLa cells
# Assay: Notch assay (CellSensor T-REx NICD CSL-bla HeLa beta-lactamase reporter; Method 1 / Method 2)
# Assay type: cell-based
# Conditions: Homo sapiens, 10 μM compound, Method 2 (40 nL of 1000× compound added to plate with Echo), read-out: inhibiton (%) at 10 μM
# Outline: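 HeLa cells carrying doxycycline-inducible NICD and a CSL-driven beta-lactamase reporter, 10^3 cells/well, were treated with compound plus doxycycline for 16-20 h at 37 °C. CCF4-AM substrate was loaded for 4 h at room temperature; background-subtracted blue (460 nm)/green (530 nm) emission ratio taken per well.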
row,SMILES,inhibition at 10 µM [%]
1,"CC(C)C[C@H]1ON(C(=O)OCc2ccccc2)C2CN(C3CCN(C)CC3)C(=O)[C@H](CC3CCCCC3)N2C1=O (stereo partly drawn) [Compound I-140, benzyl (3R,6S)-6-(cyclohexylmethyl)-3-isobutyl-8-(1-methylpiperidin-4-yl)-4,7-dioxohexahydropyrazino [2,1-c][1,2,4]oxadiazine-1(6H)-carboxylate]",60.9
2,"CC(C)C[C@H]1C(=O)N(C2CCN(C)CC2)CC2N(CCCc3ccccc3)O[C@H](CC3CCCCC3)C(=O)N21 (stereo partly drawn) [Compound I-141, (3R,6S)-3-(cyclohexylmethyl)-6-isobutyl-8-(1-methylpiperidin-4-yl)-1-(3-phenylpropyl) tetrahydropyrazino [2,1-c][1,2,4]oxadiazine-4,7(3H,6H)-dione]",83.1
3,"CCCCCC[C@H]1C(=O)N(C2CCN(C)CC2)C[C@@H]2N(CCCc3ccccc3)O[C@H](CC(C)C)C(=O)N21 [Compound I-142, (3R,6S,9aS)-6-hexyl-3-isobutyl-8-(1-methylpiperidin-4-yl)-1-(3-phenylpropyl) tetrahydropyrazino [2,1-c][1,2,4]oxadiazine-4,7(3H,6H)-dione]",113
4,"CC(C)C[C@H]1ON(CCCc2ccccc2)C2CN(C3CCN(C)CC3)C(=O)[C@H](CC3CCCCC3)N2C1=O (stereo partly drawn) [Compound I-143, (3R,6S)-6-(cyclohexylmethyl)-3-isobutyl-8-(1-methylpiperidin-4-yl)-1-(3-phenylpropyl) tetrahydropyrazino [2,1-c][1,2,4]oxadiazine-4,7(3H,6H)-dione]",105
5,"CC(C)C[C@H]1ON(C(=O)OCc2ccccc2)C2CN(C3CCN(C)CC3)C(=O)[C@H](CCCCN(Cc3ccccc3)Cc3ccccc3)N2C1=O (stereo partly drawn) [Compound I-144, benzyl (3R,6S)-6-(4-(dibenzylamino)butyl)-3-isobutyl-8-(1-methylpiperidin-4-yl)-4,7-dioxohexahydropyrazino [2,1-c][1,2,4]oxadiazine-1(6H)-carboxylate]",78.1
6,"CC(C)C[C@H]1ON(C(=O)OCc2ccccc2)[C@H]2CN(C3CCN(C)CC3)C(=O)[C@H](CCCCNCc3ccc4ccccc4n3)N2C1=O [Compound I-145, benzyl (3R,6S,9aS)-3-isobutyl-8-(1-methylpiperidin-4-yl)-4,7-dioxo-6-(4-((quinolin-2-ylmethyl)amino)butyl) hexahydropyrazino[2,1-c][1,2,4]oxadiazine-1(6H)-carboxylate]",89
7,"CC(C)C[C@H]1ON(C(=O)OCc2ccccc2)C2CN(C3CCN(C)CC3)C(=O)[C@H](CCCCNC3CN(C(=O)OC(C)(C)C)C3)N2C1=O (stereo partly drawn) [Compound I-146, benzyl (3R,6S)-6-(4-((1-(tert-butoxycarbonyl)azetidin-3-yl)amino)butyl)-3-isobutyl-8-(1-methylpiperidin-4-yl)-4,7-dioxohexahydropyrazino[2,1-c][1,2,4]oxadiazine-1(6H)-carboxylate]",105
8,"CC(C)C[C@H]1ON(CCCc2ccccc2)C2CN(C3CCNCC3)C(=O)[C@H](CC(C)C)N2C1=O (stereo partly drawn) [Compound I-147, (3R,6S)-3,6-diisobutyl-1-(3-phenylpropyl)-8-(piperidin-4-yl)tetrahydropyrazino[2,1-c][1,2,4]oxadiazine-4,7(3H,6H)-dione]",50.2
9,"CC(C)C[C@H]1ON(CCCC2CCN(C(=O)c3ccc(C(=O)c4ccccc4)cc3)CC2)C2CN(C3CCN(C)CC3)C(=O)[C@H](CC(C)C)N2C1=O (stereo partly drawn) [Compound I-148, (3R,6S)-1-(3-(1-(4-benzoylbenzoyl)piperidin-4-yl)propyl)-3,6-diisobutyl-8-(1-methylpiperidin-4-yl)tetrahydropyrazino[2,1-c][1,2,4]oxadiazine-4,7(3H,6H)-dione]",76.6
10,"Cc1ccc(S(=O)(=O)N2CCC(CCCN3O[C@H](CC(C)C)C(=O)N4C3CN(C3CCN(C)CC3)C(=O)[C@@H]4CC(C)C)CC2)cc1 (stereo partly drawn) [Compound I-149, (3R,6S)-3,6-diisobutyl-8-(1-methylpiperidin-4-yl)-1-(3-(1-tosylpiperidin-4-yl)propyl)tetrahydropyrazino [2,1-c][1,2,4]oxadiazine-4,7(3H,6H)-dione]",114
11,"CC(C)C[C@H]1ON(CCCC2CCN(S(=O)(=O)c3cccnc3)CC2)C2CN(C3CCN(C)CC3)C(=O)[C@H](CC(C)C)N2C1=O (stereo partly drawn) [Compound I-150, (3R,6S)-3,6-diisobutyl-8-(1-methylpiperidin-4-yl)-1-(3-(1-(pyridin-3-ylsulfonyl)piperidin-4-yl)propyl)tetrahydropyrazino [2,1-c][1,2,4]oxadiazine-4,7(3H,6H)-dione]",69.1
12,"CC(C)C[C@H]1ON(CCCC2CCN(S(C)(=O)=O)CC2)C2CN(C3CCN(C)CC3)C(=O)[C@H](CC(C)C)N2C1=O (stereo partly drawn) [Compound I-151, (3R,6S)-3,6-diisobutyl-8-(1-methylpiperidin-4-yl)-1-(3-(1-(methylsulfonyl)piperidin-4-yl)propyl) tetrahydropyrazino [2,1-c][1,2,4]oxadiazine-4,7(3H,6H)-dione]",88
13,"CC(C)C[C@H]1ON(CCCC2CCN(S(=O)(=O)c3ccc(C#N)cc3)CC2)C2CN(C3CCN(C)CC3)C(=O)[C@H](CC(C)C)N2C1=O (stereo partly drawn) [Compound I-152, 4-((4-(3-((3R,6S)-3,6-diisobutyl-8-(1-methylpiperidin-4-yl)-4,7-dioxohexahydro-pyrazino[2,1-c][1,2,4]oxadiazin-1(6H)-yl)propyl)piperidin-1-yl)sulfonyl)benzonitrile]",93.5
